Experimental findings from patent publication US10188634B2, “3-(3H-imidazo[4,5-C]pyridin-2-yl)-1 H-pyrazolo[4,3-B]pyridines and therapeutic uses thereof” (Samumed, LLC, priority 2015, dated 2019) are described below.

Broadly, the inhibition is the change of the read-out against control, counted positive when it falls.

Assay [1] concerns LL29 cells (primary human fibroblasts derived from IPF patients) treated with TGF-β1, α-smooth muscle actin. Put plainly: Inhibition of the fibrotic process: αSMA staining in TGF-β1 treated primary human fibroblasts from IPF patients (LL29 cells). Format: cell-based. The following applies: Fibroblast, 96 h; for EC50: LL29 cells treated with TGF-β1 (20 ng/mL), 4 days; for inhibition at 10 µM: LL29 cells treated with TGF-β1, 4 days, read-out: percent inhibition in brackets (given for EC50 >10 μM).

The test system of assay [2] is primary human mesenchymal stem cells (hMSCs). Put plainly: Induction of chondrogenesis in primary human mesenchymal stem cells (hMSCs), nodule imaging with Rhodamine B / Nile Red. The following applies: for Emax: hMSCs chondrogenesis, TGF-β3 (10 ng/mL) as positive control, read-out: Max. Activity as % TGF-β3 activity; for EC50: hMSCs, concentration required to induce 50% levels of chondrogenesis vs TGF-β3 positive control, read-out: Conc (nM) of 50% TGF-β3 activity. Format: cell-based. Here is the method: Representative compounds were screened using primary human mesenchymal stem cells (hMSCs) to determine their ability to induce chondrogenesis (process by which cartilage is developed).
Human Mesenchymal Stem Cell Culture: Primary human mesenchymal stem cells (hMSCs) were purchased from Lonza (Walkersville, Md.) and expanded in Mesenchymal Stem Cell Growth Media (Lonza). Cells between passage 3 and 6 were used for the experiments.
Compound Screening: Each compound was dissolved in DMSO as a 10 mM stock and used to prepare compound source plates. For the 96 well assay, serial dilution (1:3, 6-point dose-response curves from 2700 nM to 10 nM) and compound transfer was performed using the ECHO 550 (Labcyte, Sunnyvale, Calif.) into 96-well clear bottom assay plates (Greiner Bio-One) with appropriate DMSO backfill for a final DMSO concentration of 0.03%. hMSCs were plated at 20,000 cells/well in 250 μL/well Incomplete Chondrogenic Induction Medium (Lonza; DMEM, dexamethasone, ascorbate, insulin-transferrin-selenium [ITS supplement], gentamycin-amphotericin [GA-1000], sodium pyruvate, proline and L-glutamine). TGF-β3 (10 ng/mL) was used as a positive control for differentiation while negative control wells were treated with 75 nL DMSO for normalization and calculating EC50 values. For the 384 well assay, serial dilution (1:3, 8-point dose-response curves from 5000 nM to 2.2 nM) and compound transfer was performed using the ECHO 550 (Labcyte, Sunnyvale, Calif.) into 384-well clear bottom assay plates (Greiner Bio-One) with appropriate DMSO backfill for a final DMSO concentration of 0.03%. hMSCs were plated at 8,000 cells/well in 80 μL/well Incomplete Chondrogenic Induction Medium (Lonza; DMEM, dexamethasone, ascorbate, insulin-transferrin-selenium [ITS supplement], gentamycin-amphotericin [GA-1000], sodium pyruvate, proline and L-glutamine). TGF-β3 (10 ng/mL) was used as a positive control for differentiation while negative control wells were treated with 25 nL DMSO for normalization and calculating EC50 values. Cells were incubated at 37° C. and 5% CO2 for 6 days. To image chondrogenic nodules, the cells were fixed using 4% formaldehyde (Electron Microscopy Sciences), and stained with 2 μg/mL Rhodamine B (Sigma-Aldrich) and 20 μM Nile Red (Sigma-Aldrich) [Johnson K., et.al, A Stem Cell-Based Approach to Cartilage Repair, Science, (2012), 336(6082). 717-721]. The nodules imaged (25 images per well for 96 well plates and 9 images per well for 384 well plates at 10× magnification) by excitation at 531 nm and emission at 625 nm and quantified using the CellInsight CX5 (Thermo Scientific). Area of nodules in each well was normalized to the average of 3 DMSO treated wells on the same plate using Excel (Microsoft Inc.). The normalized averages (fold change over DMSO) of 2 or 3 replicate wells for each compound concentration were calculated. Due to solubility limitations of some of the compounds, curve fitting was incomplete leading to inaccurate EC50 determinations.
Using TGF-β3 as a positive control, the concentration of representative compounds required to induce 50% levels of chondrogenesis is reported. In addition, the maximum activity of each compound and the respective dose that each compound reached maximum chondrogenesis activity is reported.

Turning to `CN(C)CC(=O)Nc1cncc(-c2ccc3[nH]nc(-c4nc5c(-c6cccc(F)c6)cncc5[nH]4)c3n2)c1` [Compound 925, 2-(Dimethylamino)-N-(5-(3-(7-(3-fluorophenyl)-3H-imidazo[4,5-c]pyridin-2-yl)-1H-pyrazolo[4,3-b]pyridin-5-yl)pyridin-3-yl)acetamide], in assay [1], the EC50 is greater than 10000 nM and the inhibition at 10 µM was 8.3%. For the same compound, in assay [2], the Emax turned out to be 52% and the EC50 came out at 21 nM.

As for `CC(C)C(=O)Nc1cncc(-c2ccc3[nH]nc(-c4nc5c(-c6ccccc6F)cncc5[nH]4)c3n2)c1` [Compound 65, N-(5-(3-(7-(2-fluorophenyl)-3H-imidazo[4,5-c]pyridin-2-yl)-1H-pyrazolo[4,3-b]pyridin-5-yl)pyridin-3-yl)isobutyramide], in assay [1], the EC50 was greater than 10000 nM and the inhibition at 10 µM is 1.9%. Also, in assay [2], the Emax was 181% and the EC50 turned out to be 10 nM.

As for `CCC(=O)Nc1cncc(-c2ccc3[nH]nc(-c4nc5c(-c6cccc(F)c6)cncc5[nH]4)c3n2)c1` [Compound 1, N-(5-(3-(7-(3-Fluorophenyl)-3H-imidazo[4,5-c]pyridin-2-yl)-1H-pyrazolo[4,3-b]pyridin-5-yl)pyridin-3-yl)propionamide], in assay [1], the EC50 was greater than 10000 nM and the inhibition at 10 µM is 0%. Moreover, in assay [2], the Emax amounted to 580% and the EC50 was determined as 1670 nM.

For `Fc1cccc(-c2cncc3[nH]c(-c4n[nH]c5ccc(C6CCNCC6)nc45)nc23)c1` [Compound 477, 3-(7-(3-Fluorophenyl)-3H-imidazo[4,5-c]pyridin-2-yl)-5-(piperidin-4-yl)-1H-pyrazolo[4,3-b]pyridine], the EC50 in assay [1] turned out to be 4560 nM. Moreover, the Emax in assay [2] came out at 43%.

In the case of `Cn1cc(-c2ccc3[nH]nc(-c4nc5c(-c6cccc(F)c6)cncc5[nH]4)c3n2)cn1` [Compound 480, 3-(7-(3-Fluorophenyl)-3H-imidazo[4,5-c]pyridin-2-yl)-5-(1-methyl-1H-pyrazol-4-yl)-1H-pyrazolo[4,3-b]pyridine], in assay [1], the EC50 is greater than 10000 nM and the inhibition at 10 µM came out at 4.2%. Further, the Emax in assay [2] amounted to 49%.

With `CCCC(=O)Nc1cncc(-c2ccc3[nH]nc(-c4nc5c(-c6cc(F)cc(CNS(C)(=O)=O)c6)cncc5[nH]4)c3n2)c1` [Compound 465, N-(5-(3-(7-(3-Fluoro-5-(methylsulfonamidomethyl)phenyl)-3H-imidazo[4,5-c]pyridin-2-yl)-1H-pyrazolo[4,3-b]pyridin-5-yl)pyridin-3-yl)butyramide], the EC50 in assay [1] is 2350 nM. For the same compound, the Emax in assay [2] turned out to be 39%.

Turning to `Nc1cncc(-c2ccc3[nH]nc(-c4nc5c(-c6ccccc6F)cncc5[nH]4)c3n2)c1` [Compound 59, 5-(3-(7-(2-Fluorophenyl)-3H-imidazo[4,5-c]pyridin-2-yl)-1H-pyrazolo[4,3-b]pyridin-5-yl)pyridin-3-amine], in assay [1], the EC50 came to 3400 nM. Moreover, in assay [2], the Emax came out at 98% and the EC50 was 10 nM.

For the compound `CN1CCN(c2cncc3[nH]c(-c4n[nH]c5ccc(-c6cncc(N)c6)nc45)nc23)CC1` [Compound 227, 5-(3-(7-(4-Methylpiperazin-1-yl)-3H-imidazo[4,5-c]pyridin-2-yl)-1H-pyrazolo[4,3-b]pyridin-5-yl)pyridin-3-amine], the EC50 in assay [1] came out at 4830 nM; in assay [2], 30 nM. In assay [2], the Emax amounted to 65%.

Turning to `Fc1ccc(-c2cncc3[nH]c(-c4n[nH]c5ccc(-c6cncnc6)nc45)nc23)cc1` [Compound 55, 3-(7-(4-Fluorophenyl)-3H-imidazo[4,5-c]pyridin-2-yl)-5-(pyrimidin-5-yl)-1H-pyrazolo[4,3-b]pyridine], in assay [1], the EC50 was greater than 10000 nM and the inhibition at 10 µM is 21.4%. Also, in assay [2], the Emax is 125% and the EC50 is 100 nM.

Regarding `Oc1cncc(-c2ccc3[nH]nc(-c4nc5c(-c6cccc(F)c6)cncc5[nH]4)c3n2)c1` [Compound 489, 5-(3-(7-(3-Fluorophenyl)-3H-imidazo[4,5-c]pyridin-2-yl)-1H-pyrazolo[4,3-b]pyridin-5-yl)pyridin-3-ol], the EC50 in assay [1] was determined as 2310 nM. Moreover, in assay [2], the Emax came out at 54% and the EC50 came out at 21 nM.

For the compound `CCNCc1cncc(-c2ccc3[nH]nc(-c4nc5c(-c6ccoc6)cncc5[nH]4)c3n2)c1` [Compound 286, N-((5-(3-(7-(Furan-3-yl)-3H-imidazo[4,5-c]pyridin-2-yl)-1H-pyrazolo[4,3-b]pyridin-5-yl)pyridin-3-yl)methyl)ethanamine], in assay [1], the EC50 is greater than 10000 nM and the inhibition at 10 µM was found to be 0%. The Emax in assay [2] worked out at 29%.

As for `CN(C)Cc1cncc(-c2ccc3[nH]nc(-c4nc5c(N6CCCCC6)cncc5[nH]4)c3n2)c1` [Compound 181, N,N-Dimethyl-1-(5-(3-(7-(piperidin-1-yl)-3H-imidazo[4,5-c]pyridin-2-yl)-1H-pyrazolo[4,3-b]pyridin-5-yl)pyridin-3-yl)methanamine], in assay [1], the EC50 is 8030 nM. In assay [2], the Emax came to 84% and the EC50 was determined as 900 nM.

Consider `Cc1ccncc1-c1ccc2[nH]nc(-c3nc4c(-c5ccncc5)cncc4[nH]3)c2n1` [Compound 117, 5-(4-Methylpyridin-3-yl)-3-(7-(pyridin-4-yl)-3H-imidazo[4,5-c]pyridin-2-yl)-1H-pyrazolo[4,3-b]pyridine], for which, in assay [1], the EC50 was greater than 10000 nM and the inhibition at 10 µM came to 0%. Besides, in assay [2], the Emax is 68% and the EC50 stood at 30 nM.

For the compound `NC1CN(c2cncc(-c3ccc4[nH]nc(-c5nc6c(-c7cccc(F)c7)cncc6[nH]5)c4n3)n2)C1` [Compound 482, 1-(6-(3-(7-(3-Fluorophenyl)-3H-imidazo[4,5-c]pyridin-2-yl)-1H-pyrazolo[4,3-b]pyridin-5-yl)pyrazin-2-yl)azetidin-3-amine], in assay [1], the EC50 is greater than 10000 nM and the inhibition at 10 µM came to 16.7%. Besides, in assay [2], the Emax was found to be 56% and the EC50 was found to be 7 nM.

For the compound `Cc1cn(-c2cncc3[nH]c(-c4n[nH]c5ccc(-c6cncc(NC(=O)C7CCC7)c6)nc45)nc23)cn1` [Compound 217, N-(5-(3-(7-(4-Methyl-1H-imidazol-1-yl)-3H-imidazo[4,5-c]pyridin-2-yl)-1H-pyrazolo[4,3-b]pyridin-5-yl)pyridin-3-yl)cyclobutanecarboxamide], in assay [1], the EC50 was greater than 10000 nM and the inhibition at 10 µM came to 18.8%. Besides, the Emax in assay [2] was 47%.

Regarding `CCCC(=O)Nc1cncc(-c2ccc3[nH]nc(-c4nc5c(-c6ccncc6)cncc5[nH]4)c3n2)c1` [Compound 129, N-(5-(3-(7-(Pyridin-4-yl)-3H-imidazo[4,5-c]pyridin-2-yl)-1H-pyrazolo[4,3-b]pyridin-5-yl)pyridin-3-yl)butyramide], in assay [1], the EC50 is greater than 10000 nM and the inhibition at 10 µM stood at 0%. For the same compound, in assay [2], the Emax stood at 31%.

Turning to `CC(C)C(=O)Nc1cncc(-c2ccc3[nH]nc(-c4nc5c(N6CCN(C)CC6)cncc5[nH]4)c3n2)c1` [Compound 233, N-(5-(3-(7-(4-Methylpiperazin-1-yl)-3H-imidazo[4,5-c]pyridin-2-yl)-1H-pyrazolo[4,3-b]pyridin-5-yl)pyridin-3-yl)isobutyramide], in assay [1], the EC50 was greater than 10000 nM and the inhibition at 10 µM turned out to be 3.4%. The Emax in assay [2] came to 47%.

In assay [1], `O=C(Nc1cncc(-c2ccc3[nH]nc(-c4nc5c(-c6ccc(F)cc6)cncc5[nH]4)c3n2)c1)C1CCC1` [Compound 49, N-(5-(3-(7-(4-Fluorophenyl)-3H-imidazo[4,5-c]pyridin-2-yl)-1H-pyrazolo[4,3-b]pyridin-5-yl)pyridin-3-yl)cyclobutanecarboxamide] registered an EC50 of 3230 nM. Besides, in assay [2], the Emax turned out to be 33%.
